Results on 4 compounds are retold here after paper PMC5895880 (Frontiers in Pharmacology, 2018).

The target of assay [1] is T1, mGluR5 (Rattus norvegicus, UniProt P31424). The assay can be described thus: Calcium mobilization (intracellular calcium levels) in primary cultures of rat cortical astrocytes. It counts as cell-based. Conditions: GET73 0 (absence). The method, then:
The experiments have been performed on primary cultures of rat cortical astrocytes. These cells express mGlu5Rs ([Zhang et al., 2005]).
Primary cultures of cerebral cortical astrocytes were obtained from newborn rats (1 or 2 days old). Briefly, cerebral cortices were removed and dissociated by mild trypsinization at 37°C, followed by mechanical trituration to obtain single cells. Cells were suspended in the culture medium [Gibco® DMEM, 5% inactivated fetal bovine serum (Thermo-Fisher Scientific, Waltham, MA, United States), 100 IU/ml penicillin, and 100 μg/ml streptomycin (all from Sigma-Aldrich, Milan, Italy)] and then seeded in 75-cm^2 flasks at a density of 3 × 10^6 cells/flask. The cells were incubated at 37°C in a humidified atmosphere, 5% CO2/95% air. The culture medium was replaced after 24 h and again twice weekly until astrocytes were grown to form a monolayer firmly attached to the bottom of the flask (12 or 14 days after dissection). At cell confluence, flasks were vigorously shaken to separate astrocytes (which remained adherent in the bottom of the flasks) from microglia and oligodendrocytes (which floated on the supernatant) ([Tomasini et al., 2015]). Collected astrocytes were counted and then plated in poly-L-lysine at a density of 50,000 cells/well or 96-well plates black, clear bottom plates (Corning®; Sigma-Aldrich, Milan, Italy).
Subsequently 100 μl/well of the same buffer were added for 10 min. […] After placing cell culture and compound plates into the FlexStation II (Molecular Devices, Sunnyvale, CA, United States), the on-line additions were carried out in a volume of 50 μl /well and fluorescence changes were continuously measured for 2 min at 37°C.
(§1) EC50 values were calculated using non-linear regression [curve fit, log(agonist) vs. response, variable slope, four parameters]. Statistical analysis (F-test) has been performed by using GraphPad Prism 6.0 (GraphPad Software Inc., San Diego, CA, United States). Statistical differences between group means for EC50 values were also assessed by ANOVA followed by Tukey’s multiple comparisons test. Data are reported as mean ± SEM of three independent experiments. A p-value < 0.05 was considered statistically significant.
For orientation: Calcium flux is commonly read through the fluorescence of an indicator in the cells.

In assay [2] the target is T1, mGluR5. The assay can be described thus: Inositol phosphate (phosphatidylinositol) turnover in rat hippocampus slices. It counts as cell-based. Conditions: for EC50: rat hippocampus slices, read-out: EC50 of L-quisqualate, phosphatidylinositol turnover. The method, then: The experiments have been performed on rat hippocampus slices. This preparation expresses mGlu5Rs ([Zhang et al., 2005]; [Purgert et al., 2014]).
On the day of the experiment, the animals were euthanized, their brain promptly isolated and 400 μm thick slices (15–20 mg each) were obtained from both the left and right hippocampi, by using a McIlwain tissue Chopper fresh tissue. The tissue was then allowed to equilibrate for 20 min at room temperature in Krebs’ solution (composition in mM: NaCl 118; KC1 4.4; CaC1_2 1.2; MgS0_4 1.2; KH2P0_4 1.2; NaHC0_3 25; glucose 10) and gassed with a mixture of 95% O2 plus 5% CO2 ([Ferraro et al., 2011]).
Slices were placed in test tubes containing 0.3 ml of oxygenated Krebs solution with myo-[^3H]inositol 0.3 μM (NEN, Boston, MA, United States). […] The reaction was stopped by washing each slice in ice cold Krebs solution containing LiCl 10 mM and by plunging it in 0.94 ml of chloroform-methanol (1:2 v/v). After 10 min, 310 μl of chloroform and 310 μl of water were added and the tubes were shaken for 20 min. The separation of [^3H]inositol phosphates was performed by ion-exchange chromatography on AG 1-X8 resin, 200–400 mesh (Bio-Rad, Hercules, CA, United States), using different elution solutions. The collected IP3-containing fraction was mixed with Safety-Solve cocktail (RPI, Mount Prospect, IL, United States) and the radioactivity was measured by scintillation counting.
as §1

The target in assay [3] is T1, mGluR5. Nature of the assay: pCREB (Ser133) levels in primary cultures of rat cortical neurons. It counts as cell-based. Conditions: rat cerebral cortex neurons. The method, then: The experiments have been performed on primary cultures of rat cortical neurons. These cells express mGlu5Rs ([Koga et al., 2010]).
Primary cultures of cerebral cortical neurons were prepared from 1-day-old rats. Cortices free of meninges were dissociated in 0.025% (w/v) trypsin at 37°C followed by mechanical repeated gentle pipetting through wide- and narrow-bore fire-polished Pasteur pipettes in culture medium [Neurobasal medium (Gibco, Grand Island, NY, United States) supplemented with 0.1 mM glutamine (Sigma-Aldrich, Milan, Italy), 10 μg/ml gentamicin (Sigma-Aldrich, Milan, Italy) and 2% B-27® Supplement (50X), serum free (Gibco, Grand Island, NY, United States)]. Cells were counted and then plated on poly-L-lysine (5 μg/ml)-coated multiwells. Cytosine arabinoside (10 μM; Sigma-Aldrich, Milan, Italy) was added within 24 h of plating to prevent glial cell proliferation. After 8 days of in vitro incubation (days in vitro: DIV), cultures were used for experiments.
pCREB measurement was performed with the pCREB (Ser133) Assay kit (PerkinElmer Italy, Milan). Briefly, cortical neurons were seeded in 96 well tissue culture plates at a density of 4,000 cells/well and incubated at 37°C overnight. […] The lysates were transferred to a 96-well ½AreaPlate^TM for the assay. The Acceptor Mix was added for 1 h at room temperature and the Donor mix was added to wells under subdue light and incubate for 1 h at room temperature. At the end of this period, raw “AlphaScreen Signal counts” were measured by an Alpha Technology®-compatible plate reader, using standard AlphaLISA settings (excitation 680 nm, emission 615 nm).
as §1

Assay [4] has as its target T1, mGluR5. More on the design: method as in Bradley et al., 2011. The conditions noted are these: ref Bradley et al., 2011; cited from earlier work.
For assay [5], the target named is T1, mGluR5. Also noted: method as in Bradley et al., 2011. Conditions: ref Bradley et al., 2011; cited from earlier work. This is another data set of the same source.
Assay [6] has as its system mGluR5. Also noted: method as in Nickols et al., 2016. Conditions: ref Nickols et al., 2016; cited from earlier work.
Assay [7] deals with mGluR5. More on the design: method as in Nickols et al., 2016. The conditions noted are these: ref Nickols et al., 2016; cited from earlier work. This is another data set of the same source.

T1 sequence (P31424 21-875 limits assumed): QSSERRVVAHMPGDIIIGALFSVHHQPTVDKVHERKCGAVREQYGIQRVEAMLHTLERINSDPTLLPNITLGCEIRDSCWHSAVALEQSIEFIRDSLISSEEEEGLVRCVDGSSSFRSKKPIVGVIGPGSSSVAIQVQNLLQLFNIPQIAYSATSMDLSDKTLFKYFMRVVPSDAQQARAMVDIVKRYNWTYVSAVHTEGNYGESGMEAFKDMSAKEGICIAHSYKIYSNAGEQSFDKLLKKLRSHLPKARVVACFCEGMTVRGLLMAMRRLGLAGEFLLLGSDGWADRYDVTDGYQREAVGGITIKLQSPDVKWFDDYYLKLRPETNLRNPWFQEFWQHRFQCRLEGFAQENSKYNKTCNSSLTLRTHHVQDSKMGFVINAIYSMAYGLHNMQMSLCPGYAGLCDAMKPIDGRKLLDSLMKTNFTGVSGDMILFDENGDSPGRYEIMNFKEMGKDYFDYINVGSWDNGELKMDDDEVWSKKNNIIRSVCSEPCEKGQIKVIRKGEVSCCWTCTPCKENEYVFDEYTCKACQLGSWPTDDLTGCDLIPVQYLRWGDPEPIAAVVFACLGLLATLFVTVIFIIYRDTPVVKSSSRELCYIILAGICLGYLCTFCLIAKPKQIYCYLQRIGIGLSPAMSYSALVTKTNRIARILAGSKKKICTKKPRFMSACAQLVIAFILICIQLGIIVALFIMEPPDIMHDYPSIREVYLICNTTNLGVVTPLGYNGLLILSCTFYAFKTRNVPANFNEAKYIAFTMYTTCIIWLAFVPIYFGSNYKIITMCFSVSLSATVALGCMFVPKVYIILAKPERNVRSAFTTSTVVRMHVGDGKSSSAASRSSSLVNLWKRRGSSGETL

In general, EC50 refers to the concentration at which the effect is half-maximal. For the compound `NC(C(=O)O)c1cc(O)ccc1Cl` (racemic) [CHPG, (RS)-2-Chloro-5-hydroxyphenylglycine], the EC50 in assay [1] (read-out: EC50 of CHPG, intracellular calcium levels) is 1300 ± 90 µM; in assay [3] (GET73 0 (absence), read-out: EC50 of CHPG, pCREB levels) it was 1000 ± 90 µM; in assay [3] (in the presence of GET73 0.1 nM, read-out: EC50 of CHPG, pCREB levels), 1000 ± 80 µM; in assay [3] (in the presence of GET73 1 nM, read-out: EC50 of CHPG, pCREB levels), 900 ± 40 µM; in assay [3] (in the presence of GET73 10 nM, read-out: EC50 of CHPG, pCREB levels), 1400 ± 120 µM; in assay [3] (in the presence of GET73 100 nM, read-out: EC50 of CHPG, pCREB levels), 5000 ± 290 µM. Besides, in assay [2] (CHPG at the higher concentration tested (10 mM), rat hippocampal slices, p < 0.05), the Phosphatidylinositol turnover is 127 ± 4 % of basal levels.
`N[C@@H](Cn1oc(=O)[nH]c1=O)C(=O)O` [L-quisqualate, (L)-(+)-α-Amino-3,5-dioxo-1,2,4-oxadiazolidine-2-propanoic acid]: the EC50 in assay [1] (read-out: EC50 of L-quisqualate, intracellular calcium levels) came out at 0.0031 ± 0.00036 µM; in assay [2] (GET73 0 (absence)) it was 40 ± 2.37 µM; in assay [2] (in the presence of GET73 0.1 nM), 33 ± 1.57 µM; in assay [2] (in the presence of GET73 1 nM), 40 ± 1.44 µM; in assay [2] (in the presence of GET73 10 nM), 110 ± 9.5 µM; in assay [2] (in the presence of GET73 100 nM) it was 200 ± 11.1 µM. The EC50 was determined as 320 ± 15.7 µM in assay [2] (in the presence of GET73 1 μM); 200 ± 12.6 µM in assay [2] (in the presence of GET73 10 μM); 0.0088 ± 0.00068 µM in assay [3] (GET73 0 (absence), read-out: EC50 of L-quisqualate, pCREB levels); 0.009 ± 0.00091 µM in assay [3] (in the presence of GET73 0.1 nM, read-out: EC50 of L-quisqualate, pCREB levels); 0.0074 ± 0.00066 µM in assay [3] (in the presence of GET73 1 nM, read-out: EC50 of L-quisqualate, pCREB levels); 0.0085 ± 0.00052 µM in assay [3] (in the presence of GET73 10 nM, read-out: EC50 of L-quisqualate, pCREB levels). Besides, the EC50 in assay [3] (in the presence of GET73 100 nM, read-out: EC50 of L-quisqualate, pCREB levels) was 0.011 ± 0.00096 µM; in assay [3] (in the presence of GET73 1 μM, read-out: EC50 of L-quisqualate, pCREB levels), 0.022 ± 0.00172 µM; in assay [3] (in the presence of GET73 10 μM, read-out: EC50 of L-quisqualate, pCREB levels) it was 0.016 ± 0.00044 µM.
Take `COc1cccc(C#Cc2ccc(C)cn2)c1` [M-5MPEP]: the “Inhibition of agonist-stimulated [3H]IP accumulation” value in assay [4] is “partially inhibiting”. Also, the “Inhibition of agonist-stimulated Ca++ oscillations” value in assay [5] is reported as “completely blocking”.
For `CCN(CC)C(=O)c1ccc(C#Cc2cccc(F)c2)cn1` [VU0477573], in assay [6], the “Inhibition of ERK1/2 phosphorylation” value was “fully inhibited”. The “Inhibition of agonist-mediated intracellular Ca++ release” value in assay [7] is given as “only partially inhibited”.
